# Measurements published in patent publication US20220175777A1, “Inhibitors of Multidrug Resistance Transporter P-Glycoprotein” (Southern Methodist University, priority 2014, published 2022).
# Columns and labels:
# [1] = biological target: T1, Cysteineless Mouse MDR3 P-glycoprotein (Mus musculus, UniProt P21447, C1070A/C1121A/C1223A/C133A/C427A/C638A/C669A/C713A/C952A); test: ATP hydrolysis by purified P-glycoprotein, basal and verapamil-stimulated; type: biochemical
# T1 construct: made in house; host or cells: Pichia pastoris
# Procedure, shortened: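 Cysteine-less mouse MDR3 P-gp (all Cys→Ala), expressed in Pichia pastoris and stabilised with phosphatidyl choline, was pre-incubated with compounds at 37 °C. ATP hydrolysis (2 mM ATP final, 20 min) measured via pyruvate kinase/lactate dehydrogenase-coupled NADH oxidation, with and without verapamil stimulation.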
# P-gp = P-gp (Homo sapiens, UniProt P08183)
# Description: Stimulation of basal ATPase by 29-variants was used as an indicator that a compound may be a P-gp transport substrate. Effects on stimulated P-gp ATPase activity indicated whether a compound directly interfered with ATP usage by the protein (***, p<0.001; **, p<0.01; *, p<0.1; NS, not significant). Quantitative cellular accumulation of 29-variants was performed using LC-MS/MS and is presented as a ratio of the cellular amounts of 29-variants in the presence of P-gp inhibitor, tariquidar, divided by amounts accumulated in its absence. […] Binding of an ATP analog, SL-ATP, to P-gp was used to determine whether ATP binding to P-gp was affected by the 29-variants. Values+/−standard deviations are shown for at least three different P-gp preparations and three independent SL-ATP titration experiments. The values for SL-ATP binding in the presence of 29 were taken directly from Brewer et al. (2014).
# Intracellular accumulation of compound 29 variants. Cell accumulation assays for each of the 29 variants were performed as in reference^28 to more directly assess whether the compounds were indeed transport substrates for P-gp.
# [2] = biological target: T1, Cysteineless Mouse MDR3 P-glycoprotein; test: SL-ATP binding to P-gp by ESR spectroscopy; settings: 50 microM inhibitor compound
# Procedure, shortened: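 Cysteine-free mouse P-gp (30–50 microM) incubated with 50 microM inhibitor, then titrated with spin-labelled ATP analogue SL-ATP. Bound SL-ATP calculated from high-field ESR signal of free SL-ATP versus no-protein control, giving binding stoichiometry and affinity; at least 3 studies on 3–5 P-gp preparations.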
# A2780 = test: Hyper-sensitization of ovarian cancer cells to doxorubicin; type: cell-based; settings: not chemotherapy resistant A2780
# Source text: Hyper-sensitization of cancers to chemotherapeutics. […] The sensitivity of normal, not chemotherapy resistant A2780 ovarian cancer cell lines to doxorubicin was increased by several orders of magnitude in these assays.
# T1 sequence (P21447 whole entry C133A/C427A/C638A/C669A/C713A/C952A/C1070A/C1121A/C1223A): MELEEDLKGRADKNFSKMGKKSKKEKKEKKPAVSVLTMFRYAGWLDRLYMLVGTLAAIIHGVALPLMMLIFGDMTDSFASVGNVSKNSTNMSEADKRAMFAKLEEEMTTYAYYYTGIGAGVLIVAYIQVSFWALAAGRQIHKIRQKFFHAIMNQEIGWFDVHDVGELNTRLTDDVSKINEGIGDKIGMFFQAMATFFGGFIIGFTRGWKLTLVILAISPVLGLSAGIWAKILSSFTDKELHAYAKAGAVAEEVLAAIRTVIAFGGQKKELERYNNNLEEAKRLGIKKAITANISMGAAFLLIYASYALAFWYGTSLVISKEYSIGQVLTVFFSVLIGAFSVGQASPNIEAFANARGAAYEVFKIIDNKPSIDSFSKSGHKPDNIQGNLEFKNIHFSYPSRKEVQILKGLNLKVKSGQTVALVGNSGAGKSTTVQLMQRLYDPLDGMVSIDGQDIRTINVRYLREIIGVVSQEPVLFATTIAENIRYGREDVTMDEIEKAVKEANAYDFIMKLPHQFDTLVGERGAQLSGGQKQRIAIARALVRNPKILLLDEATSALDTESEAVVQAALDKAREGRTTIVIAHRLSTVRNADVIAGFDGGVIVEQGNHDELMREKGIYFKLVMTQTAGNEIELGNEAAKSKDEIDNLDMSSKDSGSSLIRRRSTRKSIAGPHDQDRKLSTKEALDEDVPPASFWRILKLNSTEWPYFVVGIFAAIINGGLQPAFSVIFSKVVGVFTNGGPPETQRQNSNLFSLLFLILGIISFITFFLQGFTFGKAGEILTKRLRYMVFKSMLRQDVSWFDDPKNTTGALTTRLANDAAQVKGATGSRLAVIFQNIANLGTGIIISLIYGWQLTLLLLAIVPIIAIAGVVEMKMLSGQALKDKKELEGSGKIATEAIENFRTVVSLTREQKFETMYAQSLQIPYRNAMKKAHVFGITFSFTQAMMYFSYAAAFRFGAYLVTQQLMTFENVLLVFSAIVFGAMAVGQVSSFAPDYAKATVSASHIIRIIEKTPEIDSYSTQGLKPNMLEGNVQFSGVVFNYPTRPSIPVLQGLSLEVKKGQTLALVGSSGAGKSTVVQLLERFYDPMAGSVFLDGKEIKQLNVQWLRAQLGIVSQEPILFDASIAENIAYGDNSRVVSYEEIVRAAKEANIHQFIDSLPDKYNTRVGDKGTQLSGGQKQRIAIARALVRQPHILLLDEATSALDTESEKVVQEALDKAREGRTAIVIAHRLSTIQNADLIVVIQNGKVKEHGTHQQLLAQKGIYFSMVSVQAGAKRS
# P-gp, sequence (P08183 whole entry): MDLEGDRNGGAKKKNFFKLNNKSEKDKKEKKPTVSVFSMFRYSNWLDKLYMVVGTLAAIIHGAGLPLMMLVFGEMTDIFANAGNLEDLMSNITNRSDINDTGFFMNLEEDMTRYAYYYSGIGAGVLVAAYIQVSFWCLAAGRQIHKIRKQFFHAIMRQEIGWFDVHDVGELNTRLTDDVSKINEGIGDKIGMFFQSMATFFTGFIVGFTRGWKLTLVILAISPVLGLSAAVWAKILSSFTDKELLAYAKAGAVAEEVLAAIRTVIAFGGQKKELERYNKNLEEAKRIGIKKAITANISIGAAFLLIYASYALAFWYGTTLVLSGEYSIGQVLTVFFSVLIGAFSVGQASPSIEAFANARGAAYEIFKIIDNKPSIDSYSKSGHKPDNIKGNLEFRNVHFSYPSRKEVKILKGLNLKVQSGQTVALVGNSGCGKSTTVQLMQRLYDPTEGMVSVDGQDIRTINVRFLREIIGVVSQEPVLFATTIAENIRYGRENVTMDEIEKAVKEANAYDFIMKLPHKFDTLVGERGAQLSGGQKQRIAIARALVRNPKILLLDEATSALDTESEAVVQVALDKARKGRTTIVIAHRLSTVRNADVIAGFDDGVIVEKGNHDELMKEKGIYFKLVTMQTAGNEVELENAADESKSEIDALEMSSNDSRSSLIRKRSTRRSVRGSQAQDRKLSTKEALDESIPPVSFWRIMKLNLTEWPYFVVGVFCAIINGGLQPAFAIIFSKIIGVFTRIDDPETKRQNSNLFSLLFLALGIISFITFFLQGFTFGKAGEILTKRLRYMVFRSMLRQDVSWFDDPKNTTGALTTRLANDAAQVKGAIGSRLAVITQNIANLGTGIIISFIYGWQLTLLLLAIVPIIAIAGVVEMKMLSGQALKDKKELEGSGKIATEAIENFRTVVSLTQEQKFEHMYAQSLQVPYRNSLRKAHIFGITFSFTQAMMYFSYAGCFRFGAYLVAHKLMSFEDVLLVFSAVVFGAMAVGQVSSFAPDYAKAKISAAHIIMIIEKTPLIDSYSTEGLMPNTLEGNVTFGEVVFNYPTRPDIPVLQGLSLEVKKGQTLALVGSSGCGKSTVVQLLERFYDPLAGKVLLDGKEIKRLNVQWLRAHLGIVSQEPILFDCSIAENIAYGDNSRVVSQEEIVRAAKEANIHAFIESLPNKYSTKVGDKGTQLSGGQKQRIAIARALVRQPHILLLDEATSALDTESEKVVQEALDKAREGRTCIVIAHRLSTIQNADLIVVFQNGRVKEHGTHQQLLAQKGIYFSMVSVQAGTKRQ
smiles,measurement,setting,value
"Cc1cc(C)c(-c2cc(NC(=O)CSc3n[nH]c(C4CC4)n3)n(-c3ccccc3)n2)cc1C [SMU-29, 2-[(5-cyclopropyl-1H-1,2,4-triazol-3-yl)sulfanyl]-N-[2-phenyl-5-(2,4,5-trimethylphenyl)pyrazol-3-yl]acetamide]",Effect on stimulated ATPase,[1]; in the presence of verapamil,significantly inhibit
same,Stimulated ATPase (% of DMSO),"[1]; in the presence of verapamil, ± standard deviation",49 ± 2 % of DMSO
same,Basal ATPase (% of DMSO),"[1]; without added transport substrate, ± standard deviation",95 ± 11 % of DMSO
same,Intracellular accumulation in the presence versus absence of TQR,P-gp,no significant difference
same,Transport substrate for P-gp,P-gp; not told,not a transport substrate
same,Effect on SL-ATP binding,[2],decreased the SL-ATP binding affinities
same,Sensitivity to doxorubicin,A2780,hyper-sensitized
